B1: α-keto acid reductase: NADH-dependent α-keto acid reductase purified from Leuconostoc mesenteroides subsp. dextranicum ATCC 17072; amino acid sequence SEQ ID NO: 2 (protein)
chain: MKIAIAGFGALGARLGVMLQAGGHEVTGIDGWPAHIAAINTKGLTVVKDNDAPQKYFVPVMPASEVTGTFDLIILLTKTPQLDRMLTDIQPIITDTTKLLVLSNGLGNIEVMAKHVSRHQILAGVTLWTSSLIKPGEIHVTGSGSIKLQAIGDADVQSIADALNQAGLNAEITPDVMTAIWHKAGINAVLNPLSVLLNANIAEFGTAGNAMDLALNILDEMKQVGASQGIKVDVSGIMTDLSQLLKPENAGNHFPSMYQDIQNGKRTEIDFLNGYFAKIGHESGIPTPFNALVTRLIHAKEDIERVKLAKQQENFEI
modifications: Leuconostoc mesenteroides

In the first data set the test system is α-keto acid reductase. Kind of data set: Dehydrogenase activity of α-keto acid reductase against 2-chloromandelic acid. Type of data set: biochemical, Leuconostoc mesenteroides subsp. dextranicum. Particulars: coenzyme NAD^+, substrate 1 mM; reduction activity of 2-chlorophenyl glyoxylic acid taken as 100. How it is done:
In the present invention, the dehydrogenase activity against 2-chloromandelic acid of an enzyme can be confirmed by the following assay procedure:incubate the enzyme at 30° C. in a reaction solution of 50 mM Tris-HCl buffer (pH 8.5) containing 2.5 mM NAD^+, and 1 mM 2-chloromandelic acid; and measure the increase in absorbance at 340 nm associated with the generation of NADH. 1 U is defined as an amount of enzyme that catalyzes the production of 1 μmol NADH in one minute.
(§1) The enzyme obtained in Example 9 was incubated with various α-keto acids, ketones, ketols, etc. The activities of the reduction reaction are shown in Table 8, defined as relative activities taking the reduction activity of 2-chlorophenyl glyoxylic acid as 100.
As to `O=C(O)C(O)c1ccccc1Cl` (racemic) [(R,S)-2-chloromandelic acid], the Relative activity is 0.022%.
The same measure, in the same setting: then `O=C(O)[C@H](O)c1ccccc1Cl` [(R)-2-chloromandelic acid], with 0.045%.

Tested on in a further data set: not given
Assay: not given
In kind it is biochemical, Leuconostoc mesenteroides subsp. dextranicum. Particulars: purification steps from Leuconostoc mesenteroides subsp. dextranicum ATCC 17072, NADH-dependent. The protocol:
Leuconostoc mesenteroides subsp. dextranicum strain (ATCC 17072) was cultured in 1.2 L of MRS medium (Lactobacilli MRS broth, Difco Laboratories), and then cells were harvested by centrifugation. The resulting wet cells were suspended in 50 mM Tris-HCl buffer (pH 8.5) containing 0.02% 2-mercaptoethanol and 2 mM phenylmethanesulfonyl fluoride (PMSF), and crushed with a bead beater (Biospec Products, Inc.). Then, cell debris was removed by centrifugation to prepare cell-free extract. Protamine sulfate was added to the cell-free extract and the mixture was centrifuged to prepare supernatant avoid of nucleic acid. Ammonium sulfate was added to the supernatant at a final concentration of 30%. […] NADH-dependent 2-chlorophenyl glyoxylic acid-reducing activity was detected in fractions eluted with the gradient. […]
2-chlorophenyl glyoxylic acid-reducing activities of the enzyme obtained in Example 9 at various pHs were determined by changing the pH with the use of potassium phosphate buffer, sodium acetate buffer, and Britten and Robinson broad-range buffer. […]
2-chlorophenyl glyoxylic acid-reducing activities of the enzyme obtained in Example 9 were measured under standard reaction conditions at various temperatures. […]
Molecule B1 came in with a Relative activity of 3810 U/mg.

The data set is the same for the next values; noted with them: purified enzyme, single band on SDS-PAGE.
Consider B1, for which the Specific activity is 3,810 U/mg.

The test system of the next data set is α-keto acid reductase. Kind of data set: Substrate specificity of α-keto acid reductase (reduction reaction). Type of data set: biochemical, Leuconostoc mesenteroides subsp. dextranicum. Conditions: coenzyme NADH, substrate 1 mM; reduction activity of 2-chlorophenyl glyoxylic acid taken as 100. The protocol:
as §1
Consider `O=C(O)C(=O)c1cccc(Cl)c1` [3-chlorophenyl glyoxylic acid], for which the Relative activity is recorded as 4.5%.
The same measure, in the same setting: for `CCCC(=O)C(=O)O` [α-ketovaleric acid] the value was 3.1%.
On the same count and under the same terms, then `O=C(O)C(=O)c1ccccc1Cl` [2-chlorophenyl glyoxylic acid], with 100.0%.
Same read-out and setting: for `CC(=O)C(=O)O` [pyruvic acid] the value was 0.0%; for `O=C(O)C(=O)c1ccccc1` [phenyl glyoxylic acid], 12.9%; for `CC(C)(C)C(=O)C(=O)O` [trimethyl pyruvic acid], 0.1%.
As for `CC(C)C(=O)C(=O)O` [α-ketoisovaleric acid], the Relative activity was determined as 19.3%.
Still for that read-out and setting: then `O=C(O)C(=O)Cc1ccccc1` [β-phenylpyruvic acid], with 0.3%; and `CCCCC(=O)C(=O)O` [α-ketocaproic acid], with 4.3%.
Same read-out and setting: then `O=C(O)C(=O)Cc1ccccc1` [α-keto-4-phenylpyruvic acid], with 0.1%.
Same read-out and setting: for `CCC(=O)C(=O)O` [α-ketobutyric acid] the value was 0.4%; for `CC(C)CC(=O)C(=O)O` [α-ketoisocaproic acid], 14.7%.

Still in this data set, the particulars now being: coenzyme NADH, substrate 5 mM; reduction activity of 2-chlorophenyl glyoxylic acid taken as 100.
Molecule `CC(C)(CO)C(=O)C(=O)O` [keto pantoic acid] yielded a Relative activity of 3.1%.

The same data set, now with this note: coenzyme NADPH, substrate 1 mM; NADH reduction of 2-chlorophenyl glyoxylic acid taken as 100.
Molecule `O=C(O)C(=O)c1ccccc1Cl` [2-chlorophenyl glyoxylic acid] yielded a Relative activity of 0.4%.

The values above are taken from patent publication US7250278B2, “α-keto acid reductase, method for producing the same, and method for producing optically active α-hydroxy acids using the same” (Daicel Chemical Industries, Ltd., priority 2002, dated 2007).
